{
  "source": "paper PMC5632727",
  "about": "“Boeravinone B, A Novel Dual Inhibitor of NorA Bacterial Efflux Pump of Staphylococcus aureus and Human P-Glycoprotein, Reduces the Biofilm Formation and Intracellular Invasion of Bacteria” (Frontiers in Microbiology, 2017)",
  "assay_type_in_all_cases": "cell-based",
  "key": {"[1]": {"molecular_target": "T1, NorA multidrug efflux pump (Staphylococcus aureus, UniProt Q03325)", "T1 construct": "gene norA1199", "T1 sequence (Q03325 entry or part of it)": "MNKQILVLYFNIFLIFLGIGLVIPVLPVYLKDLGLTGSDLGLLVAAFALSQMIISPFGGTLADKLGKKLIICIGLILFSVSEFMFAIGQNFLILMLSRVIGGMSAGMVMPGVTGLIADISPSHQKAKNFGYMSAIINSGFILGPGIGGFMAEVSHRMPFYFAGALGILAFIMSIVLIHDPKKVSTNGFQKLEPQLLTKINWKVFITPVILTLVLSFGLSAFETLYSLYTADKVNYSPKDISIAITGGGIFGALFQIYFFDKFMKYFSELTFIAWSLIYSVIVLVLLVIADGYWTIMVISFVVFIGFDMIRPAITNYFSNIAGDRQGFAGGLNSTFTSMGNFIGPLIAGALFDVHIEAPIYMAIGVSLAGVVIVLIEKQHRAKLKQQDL"}, "[2]": {"molecular_target": "T1, NorA multidrug efflux pump", "assay": "fluorescent efflux and accumulation in NorA-overexpressing, wild-type and knockout S. aureus cells"}, "[3]": {"molecular_target": "T1, NorA multidrug efflux pump", "assay": "ethidium bromide efflux and accumulation in NorA-overexpressing SA-1199B cells; no effect in norA knockout SA-K1758"}},
  "note": "Like-named read-outs stand apart in the source and are kept apart here.",
  "data": [
    {"molecule": "COC(=O)[C@H]1[C@H]2C[C@@H]3c4[nH]c5cc(OC)ccc5c4CCN3C[C@H]2C[C@@H](OC(=O)c2cc(OC)c(OC)c(OC)c2)[C@@H]1OC", "note": "[reserpine]", "values": [
      {"measurement": "ethidium bromide efflux and accumulation in NorA-overexpressing SA-1199B cells;", "setting": "[1]", "value": "Reserpine, a known efflux pump inhibitor, was used as the positive control in both studies."}
    ]},
    {"molecule": "CC[n+]1c(-c2ccccc2)c2cc(N)ccc2c2ccc(N)cc21", "note": "[ethidium bromide]", "values": [
      {"measurement": "fluorescent efflux and accumulation in NorA-overexpressing, wild-type and knocko", "setting": "[2]", "value": "a rapid decrease occurred in the fluorescence because of the NorA-mediated efflux of ethidium bromide"}
    ]},
    {"molecule": "Cc1c(O)cc2oc3c(c(=O)c2c1O)-c1ccccc1OC3O", "note": "(stereo not drawn) [boeravinone B, 6,9,11-trihydroxy-10-methylchromeno[3,4-b]chromen-12(6H)-one]", "values": [
      {"measurement": "ethidium bromide efflux and accumulation in NorA-overexpressing SA-1199B cells;", "setting": "[3]", "value": "in cells treated with boeravinone B, the efflux of ethidium bromide was prevented, resulting in the prolonged retention of fluorescence"}
    ]}
  ]
}
